According to patent US6825205B2 (priority 2002, dated 2004):

What was measured:
[1] = molecular target: μ opioid receptor (μ membrane protein) (Homo sapiens, UniProt P35372); assay: biochemical
[2] = rat, in vivo
in vivo = details: Sprague-Dawley, rat, ip, 10 mg/kg

Sequence of μ opioid receptor (μ membrane protein) (P35372 whole entry, species assumed): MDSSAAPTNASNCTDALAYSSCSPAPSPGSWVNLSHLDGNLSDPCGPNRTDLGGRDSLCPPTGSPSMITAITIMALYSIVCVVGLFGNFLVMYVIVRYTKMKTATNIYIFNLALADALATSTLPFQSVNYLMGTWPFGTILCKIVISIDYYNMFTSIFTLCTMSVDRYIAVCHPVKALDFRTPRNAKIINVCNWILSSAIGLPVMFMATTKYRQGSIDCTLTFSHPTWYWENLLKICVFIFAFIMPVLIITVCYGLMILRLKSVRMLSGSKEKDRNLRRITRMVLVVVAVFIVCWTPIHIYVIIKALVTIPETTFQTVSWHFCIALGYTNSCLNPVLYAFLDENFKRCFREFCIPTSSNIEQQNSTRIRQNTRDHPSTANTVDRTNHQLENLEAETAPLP

With `C[N+]1(C)CC[C@]23c4c5ccc(O)c4O[C@H]2C(=O)CC[C@H]3[C@H]1C5` [N-methylhydromorphone, N-methylhydromorphonium iodide] as the compound, how does the EC50 [1] read?
The EC50 was 817 ± 83 nM.

What about the “GTP-γ-S Activity/Efficacy % DAMGO” value [1] of the same compound?
Its value is 29 ± 1 % DAMGO.

And the “Penetration of the CNS / blood-brain barrier” value [2]?
The value was “does not penetrate the CNS”.

And the Kp (in vivo)?
Its Kp is 0.02 ± 0.01.
